Experimental data taken from paper PMC3509384 (Anesthesiology, 2012).
Read-outs that look alike come from different tables or passages of the source.

Experiments:
rats = test: Loss of righting reflexes; format: in vivo, Sprague-Dawley rats; settings: for Slope of Duration vs. Log Dose ± SD / ED50 ± SD for loss of righting reflexes (LORR) / R/S ED50 ratio: rats; for Slope of Duration vs. Log Dose ± SD: duration of LORR vs logarithm of dose; for Slope of Duration vs. Log Dose ± SD / ED50 ± SD for loss of righting reflexes (LORR) / death of rat after dosing: intravenous bolus; for ED50 ± SD for loss of righting reflexes (LORR): method of Waud; for R/S ED50 ratio: ED50 for LORR of (R)-form versus (S)-form of the diastereometric pair; for death of rat after dosing: one rat, 20 mg/kg dose
[1] = Octanol:water partition coefficient; format: physicochemical; settings: water buffered with 10 mM Tris (pH 7.4)
[2] = In vitro metabolic half-life in pooled rat blood; format: in vitro ADME, Sprague-Dawley rats; settings: for Blood Half-Life (95% CI): pooled rat blood, 37°C, 200 µM
[3] = ref Pejo et al.[8]; cited from earlier work

For `COC(=O)C[C@H](C)OC(=O)c1cncn1[C@H](C)c1ccccc1` [β-(S)-methyl- methoxycarbonyl etomidate], which “Slope of Duration vs. Log Dose ± SD” value (rats) is on record?
Its value is 2.0 ± 0.5 min/(log mg/kg).

And the “ED50 ± SD for loss of righting reflexes (LORR)” value (“ED50 ± SD for loss” below) (rats)?
The value was 2.9 ± 0.3 mg/kg.

And the “Octanol/Water Partition Coefficient ± SD” value [1]?
Its value is 484 ± 12.

What about the “Blood Half-Life (95% CI)” value [2] of the same compound?
The value was 0.72 (0.56–0.98) min.

For `COC(=O)C(C)(C)COC(=O)c1cncn1[C@H](C)c1ccccc1` [α-dimethyl- methoxycarbonyl etomidate], which “Slope of Duration vs. Log Dose ± SD” value (rats) is on record?
The value was 9.8 ± 1.5 min/(log mg/kg).

What about the “ED50 ± SD for loss” value (rats) of the same compound?
The value was 2.4 ± 1 mg/kg.

And the “Octanol/Water Partition Coefficient ± SD” value [1]?
Its value is 2240 ± 150.

What about the “Blood Half-Life (95% CI)” value [2] of the same compound?
The value was 2.6 (1.9–4.2) min.

Which “R/S ED50 ratio” value (rats) does the source give for α-methyl-methoxycarbonyl etomidate here?
Its value is 1.7.

For `COC(=O)C[C@@H](C)OC(=O)c1cncn1[C@H](C)c1ccccc1` [β-(R)-methyl- methoxycarbonyl etomidate], which “Slope of Duration vs. Log Dose ± SD” value (rats) is on record?
The value was 2.9 ± 0.8 min/(log mg/kg).

And the “ED50 ± SD for loss” value (rats)?
The value was 3.5 ± 0.6 mg/kg.

And the “Octanol/Water Partition Coefficient ± SD” value [1]?
The value was 500 ± 24.

And the “Blood Half-Life (95% CI)” value [2]?
The value was 0.91 (0.76–1.1) min.

With `COC(=O)COC(=O)c1cncn1[C@H](C)c1ccccc1` [Methoxycarbonyl metomidate] as the compound, how does the “Slope of Duration vs. Log Dose ± SD” value (rats) read?
The value was 1.6 ± 0.4 min/(log mg/kg).

What about the “ED50 ± SD for loss” value (rats) of the same compound?
The value was 11.1 ± 0.8 mg/kg.

And the “Octanol/Water Partition Coefficient ± SD” value [1]?
The value was 159 ± 15.

What about the “Blood Half-Life (95% CI)” value [2] of the same compound?
The value was <0.03 min.

What does the source list for `COC(=O)[C@@H](C)COC(=O)c1cncn1[C@H](C)c1ccccc1` [α-(S)-methyl- methoxycarbonyl etomidate]?
Slope of Duration vs. Log Dose ± SD (rats): 2.4 ± 0.3 min/(log mg/kg); ED50 ± SD for loss of righting reflexes (LORR) (rats): 3.1 ± 0.4 mg/kg; Octanol/Water Partition Coefficient ± SD [1]: 530 ± 170; Blood Half-Life (95% CI) [2]: 0.76 (0.58–1.0) min

For `COC(=O)C(OC(=O)c1cncn1C(C)c1ccccc1)C(C)C` (stereo not drawn) [isopropyl-methoxycarbonyl metomidate], which “R/S ED50 ratio” value (rats) is on record?
Its value is 3.0.

Which results are given for `COC(=O)[C@@H](C)OC(=O)c1cncn1[C@H](C)c1ccccc1` [(R)-methyl- methoxycarbonyl metomidate]?
Slope of Duration vs. Log Dose ± SD (rats): 4.6 ± 0.7 min/(log mg/kg); ED50 ± SD for loss of righting reflexes (LORR) (rats): 9.6 ± 1.9 mg/kg; Octanol/Water Partition Coefficient ± SD [1]: 380 ± 15; Blood Half-Life (95% CI) [2]: <0.03 min

What does the source list for `CCOC(=O)c1cncn1[C@H](C)c1ccccc1` [Etomidate, (R)-ethyl-1-(1-phenylethyl)-1H-imidazole-5-carboxylate, reference compound]?
Octanol/Water Partition Coefficient ± SD [3]: 800 ± 180; Slope of Duration vs. Log Dose ± SD (rats): 24.6 ± 4.7 min/(log mg/kg)

What does the source list for `COC(=O)[C@H](C)COC(=O)c1cncn1[C@H](C)c1ccccc1` [α-(R)-methyl- methoxycarbonyl etomidate]?
Slope of Duration vs. Log Dose ± SD (rats): 2.6 ± 0.3 min/(log mg/kg); ED50 ± SD for loss of righting reflexes (LORR) (rats): 5.2 ± 0.5 mg/kg; Octanol/Water Partition Coefficient ± SD [1]: 670 ± 120; Blood Half-Life (95% CI) [2]: 0.19 (0.17–0.22) min

For `COC(=O)[C@H](C)OC(=O)c1cncn1[C@H](C)c1ccccc1` [(S)-methyl- methoxycarbonyl metomidate], which “Slope of Duration vs. Log Dose ± SD” value (rats) is on record?
Its value is 1.9 ± 0.2 min/(log mg/kg).

What about the “ED50 ± SD for loss” value (rats) of the same compound?
The value was 3.5 ± 0.4 mg/kg.

What about the “Octanol/Water Partition Coefficient ± SD” value [1] of the same compound?
Its value is 330 ± 16.

And the “Blood Half-Life (95% CI)” value [2]?
Its value is 0.14 (0.08–0.62) min.

Which results are given for `COC(=O)c1cncn1C(C)c1ccccc1` (stereo not drawn) [Metomidate, reference compound]?
Slope of Duration vs. Log Dose ± SD (rats): 33.0 ± 3.9 min/(log mg/kg); half-life at 200 µM ([2]; Sprague-Dawley, rat, pooled heparinised whole blood): 2.38 h

For `COC(=O)CCOC(=O)c1cncn1[C@H](C)c1ccccc1` [Methoxycarbonyl etomidate], which “Slope of Duration vs. Log Dose ± SD” value (rats) is on record?
The value was 1.0 ± 0.3 min/(log mg/kg).

And the “ED50 ± SD for loss” value (rats)?
Its value is 5.3 ± 1.5 mg/kg.

And the “Octanol/Water Partition Coefficient ± SD” value [1]?
The value was 190 ± 25.

And the “Blood Half-Life (95% CI)” value [2]?
The value was 0.41 (0.31–0.60) min.

For methyl-methoxycarbonyl metomidate, which “R/S ED50 ratio” value (rats) is on record?
The value was 2.7.

Which “Slope of Duration vs. Log Dose ± SD” value (rats) does the source give for Cyclopropyl- methoxycarbonyl metomidate here?
The value was 6.9 ± 0.5 min/(log mg/kg).

What about the “ED50 ± SD for loss” value (rats) of the same compound?
The value was 0.69 ± 0.04 mg/kg.

And the “Octanol/Water Partition Coefficient ± SD” value [1]?
Its value is 420 ± 11.

What about the “Blood Half-Life (95% CI)” value [2] of the same compound?
Its value is 0.57 (0.49–0.68) min.

With `COC(=O)CCOC(=O)c1cncn1[C@H](c1ccccc1)C(C)C` [(S)-isopropyl- methoxycarbonyl metomidate] as the compound, how does the “Slope of Duration vs. Log Dose ± SD” value (rats) read?
Its value is 12.1 ± 1.1 min/(log mg/kg).

And the “ED50 ± SD for loss” value (rats)?
The value was 1.2 ± 0.19 mg/kg.

What about the “Octanol/Water Partition Coefficient ± SD” value [1] of the same compound?
The value was 2860 ± 67.

And the “Blood Half-Life (95% CI)” value [2]?
Its value is 15.5 (11.6–23.1) min.

For `COC(=O)C(C)(C)OC(=O)c1cncn1[C@H](C)c1ccccc1` [Dimethyl- methoxycarbonyl metomidate], which “death of rat after dosing” value (rats) is on record?
The value was “died”.

What about the “Slope of Duration vs. Log Dose ± SD” value (rats) of the same compound?
The value was 9.6 ± 0.8 min/(log mg/kg).

And the “ED50 ± SD for loss” value (rats)?
The value was 0.72 ± 0.16 mg/kg.

And the “Octanol/Water Partition Coefficient ± SD” value [1]?
Its value is 660 ± 110.

What about the “Blood Half-Life (95% CI)” value [2] of the same compound?
The value was 8.7 (7.4–10.7) min.

Which “R/S ED50 ratio” value (rats) does the source give for β-methyl-methoxycarbonyl etomidate here?
The value was 1.2.

Which results are given for `COC(=O)CC(C)(C)OC(=O)c1cncn1C(C)c1ccccc1` (stereo not drawn) [β-dimethyl- methoxycarbonyl etomidate]?
Slope of Duration vs. Log Dose ± SD (rats): 11.9 ± 0.6 min/(log mg/kg); ED50 ± SD for loss of righting reflexes (LORR) (rats): 1.9 ± 0.3 mg/kg; Octanol/Water Partition Coefficient ± SD [1]: 1580 ± 40; Blood Half-Life (95% CI) [2]: 23.4 (19.6–28.9) min

What does the source list for `COC(=O)CCOC(=O)c1cncn1[C@@H](c1ccccc1)C(C)C` [(R)-isopropyl- methoxycarbonyl metomidate]?
death of rat after dosing (rats): died; Slope of Duration vs. Log Dose ± SD (rats): 6.6 ± 1.3 min/(log mg/kg); ED50 ± SD for loss of righting reflexes (LORR) (rats): 3.6 ± 0.8 mg/kg; Octanol/Water Partition Coefficient ± SD [1]: 3830 ± 310; Blood Half-Life (95% CI) [2]: 0.15 (0.15–0.16) min
